Read-outs that look alike come from different tables or passages of the source. Positions of bridges follow the written chain, without caps; N, C: chain ends. Residues, ends and D or L forms follow the SMILES beside them.
Tests used:
[1] = test system: acutely isolated rat cardiomyocytes; conditions: 3 mM, n = 6
[2] = target: T1, rKv4.2 (Rattus norvegicus, UniProt Q63881); experiment: cell-based; conditions: SEM; for IC50: whole-cell patch clamp, HEK293T, n = 3-8
T1 construct: expressed in transfected cells; host or cells: HEK293T
T1 sequence (Q63881 1-630): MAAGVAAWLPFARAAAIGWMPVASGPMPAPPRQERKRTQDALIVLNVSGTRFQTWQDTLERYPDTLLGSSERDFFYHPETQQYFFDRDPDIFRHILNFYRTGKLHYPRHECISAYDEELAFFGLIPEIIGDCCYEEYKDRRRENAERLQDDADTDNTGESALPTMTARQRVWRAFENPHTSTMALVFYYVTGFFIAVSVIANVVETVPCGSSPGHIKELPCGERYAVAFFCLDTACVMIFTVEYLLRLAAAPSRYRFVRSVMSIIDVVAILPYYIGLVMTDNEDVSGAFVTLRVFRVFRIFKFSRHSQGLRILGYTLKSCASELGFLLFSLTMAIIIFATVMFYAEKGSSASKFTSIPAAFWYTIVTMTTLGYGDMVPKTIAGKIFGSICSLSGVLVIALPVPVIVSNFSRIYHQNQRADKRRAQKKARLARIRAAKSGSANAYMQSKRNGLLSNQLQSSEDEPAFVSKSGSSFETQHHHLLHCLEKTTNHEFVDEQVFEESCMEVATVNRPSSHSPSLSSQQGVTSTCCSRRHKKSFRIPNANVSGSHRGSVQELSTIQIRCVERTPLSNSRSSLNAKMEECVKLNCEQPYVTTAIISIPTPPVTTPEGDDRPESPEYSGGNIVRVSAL

[3] = target: T2, rKv4.3 (Rattus norvegicus, UniProt Q62897); experiment: cell-based
T2 construct: expressed in transfected cells; host or cells: HEK293T
T2 sequence (Q62897 1-655): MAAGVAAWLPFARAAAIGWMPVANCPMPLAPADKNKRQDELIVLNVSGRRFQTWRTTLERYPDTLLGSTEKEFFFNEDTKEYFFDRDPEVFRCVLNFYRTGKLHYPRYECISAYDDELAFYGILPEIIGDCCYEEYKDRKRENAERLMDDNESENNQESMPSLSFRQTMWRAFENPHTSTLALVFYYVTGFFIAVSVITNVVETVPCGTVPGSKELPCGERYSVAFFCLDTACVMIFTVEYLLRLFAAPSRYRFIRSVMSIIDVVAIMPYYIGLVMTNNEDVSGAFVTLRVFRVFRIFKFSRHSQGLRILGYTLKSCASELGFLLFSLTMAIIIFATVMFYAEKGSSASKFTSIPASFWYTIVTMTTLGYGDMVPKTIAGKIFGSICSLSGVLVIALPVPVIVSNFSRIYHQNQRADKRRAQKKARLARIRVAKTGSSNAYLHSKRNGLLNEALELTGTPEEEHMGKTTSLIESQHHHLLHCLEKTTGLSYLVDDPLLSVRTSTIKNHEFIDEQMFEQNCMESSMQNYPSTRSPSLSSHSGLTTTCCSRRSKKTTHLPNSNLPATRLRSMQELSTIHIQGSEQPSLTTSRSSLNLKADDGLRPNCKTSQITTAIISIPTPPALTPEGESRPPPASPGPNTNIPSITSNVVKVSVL

[4] = test system: other Kv channels (hKv1.1-1.5, rKv2.1, hKv3.1-3.4, mKv4.1, hKv7.2 and hERG)
[5] = target: T3, hNav1.7 (Homo sapiens, UniProt Q15858); experiment: cell-based; conditions: whole-cell patch clamp, HEK293T, SEM
T3 construct: expressed in transfected cells; host or cells: HEK293T

[6] = same toxin concentrations (footnote b160), mean ± S.E.M., SEM
[7] = mean ± SEM, this study, read-out: IC50 on hNav1.7
[8] = mean ± SEM, read-out: IC50 on rKv4.2 WT

T3 sequence (O60939 30-215): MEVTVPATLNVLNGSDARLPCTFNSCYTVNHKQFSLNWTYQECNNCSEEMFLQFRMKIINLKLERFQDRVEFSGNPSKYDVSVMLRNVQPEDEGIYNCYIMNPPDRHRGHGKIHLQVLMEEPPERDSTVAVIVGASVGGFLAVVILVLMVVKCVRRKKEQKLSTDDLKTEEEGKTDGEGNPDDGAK
T3 sequence (Q15858 other isoform, or with tags, fused parts or gaps): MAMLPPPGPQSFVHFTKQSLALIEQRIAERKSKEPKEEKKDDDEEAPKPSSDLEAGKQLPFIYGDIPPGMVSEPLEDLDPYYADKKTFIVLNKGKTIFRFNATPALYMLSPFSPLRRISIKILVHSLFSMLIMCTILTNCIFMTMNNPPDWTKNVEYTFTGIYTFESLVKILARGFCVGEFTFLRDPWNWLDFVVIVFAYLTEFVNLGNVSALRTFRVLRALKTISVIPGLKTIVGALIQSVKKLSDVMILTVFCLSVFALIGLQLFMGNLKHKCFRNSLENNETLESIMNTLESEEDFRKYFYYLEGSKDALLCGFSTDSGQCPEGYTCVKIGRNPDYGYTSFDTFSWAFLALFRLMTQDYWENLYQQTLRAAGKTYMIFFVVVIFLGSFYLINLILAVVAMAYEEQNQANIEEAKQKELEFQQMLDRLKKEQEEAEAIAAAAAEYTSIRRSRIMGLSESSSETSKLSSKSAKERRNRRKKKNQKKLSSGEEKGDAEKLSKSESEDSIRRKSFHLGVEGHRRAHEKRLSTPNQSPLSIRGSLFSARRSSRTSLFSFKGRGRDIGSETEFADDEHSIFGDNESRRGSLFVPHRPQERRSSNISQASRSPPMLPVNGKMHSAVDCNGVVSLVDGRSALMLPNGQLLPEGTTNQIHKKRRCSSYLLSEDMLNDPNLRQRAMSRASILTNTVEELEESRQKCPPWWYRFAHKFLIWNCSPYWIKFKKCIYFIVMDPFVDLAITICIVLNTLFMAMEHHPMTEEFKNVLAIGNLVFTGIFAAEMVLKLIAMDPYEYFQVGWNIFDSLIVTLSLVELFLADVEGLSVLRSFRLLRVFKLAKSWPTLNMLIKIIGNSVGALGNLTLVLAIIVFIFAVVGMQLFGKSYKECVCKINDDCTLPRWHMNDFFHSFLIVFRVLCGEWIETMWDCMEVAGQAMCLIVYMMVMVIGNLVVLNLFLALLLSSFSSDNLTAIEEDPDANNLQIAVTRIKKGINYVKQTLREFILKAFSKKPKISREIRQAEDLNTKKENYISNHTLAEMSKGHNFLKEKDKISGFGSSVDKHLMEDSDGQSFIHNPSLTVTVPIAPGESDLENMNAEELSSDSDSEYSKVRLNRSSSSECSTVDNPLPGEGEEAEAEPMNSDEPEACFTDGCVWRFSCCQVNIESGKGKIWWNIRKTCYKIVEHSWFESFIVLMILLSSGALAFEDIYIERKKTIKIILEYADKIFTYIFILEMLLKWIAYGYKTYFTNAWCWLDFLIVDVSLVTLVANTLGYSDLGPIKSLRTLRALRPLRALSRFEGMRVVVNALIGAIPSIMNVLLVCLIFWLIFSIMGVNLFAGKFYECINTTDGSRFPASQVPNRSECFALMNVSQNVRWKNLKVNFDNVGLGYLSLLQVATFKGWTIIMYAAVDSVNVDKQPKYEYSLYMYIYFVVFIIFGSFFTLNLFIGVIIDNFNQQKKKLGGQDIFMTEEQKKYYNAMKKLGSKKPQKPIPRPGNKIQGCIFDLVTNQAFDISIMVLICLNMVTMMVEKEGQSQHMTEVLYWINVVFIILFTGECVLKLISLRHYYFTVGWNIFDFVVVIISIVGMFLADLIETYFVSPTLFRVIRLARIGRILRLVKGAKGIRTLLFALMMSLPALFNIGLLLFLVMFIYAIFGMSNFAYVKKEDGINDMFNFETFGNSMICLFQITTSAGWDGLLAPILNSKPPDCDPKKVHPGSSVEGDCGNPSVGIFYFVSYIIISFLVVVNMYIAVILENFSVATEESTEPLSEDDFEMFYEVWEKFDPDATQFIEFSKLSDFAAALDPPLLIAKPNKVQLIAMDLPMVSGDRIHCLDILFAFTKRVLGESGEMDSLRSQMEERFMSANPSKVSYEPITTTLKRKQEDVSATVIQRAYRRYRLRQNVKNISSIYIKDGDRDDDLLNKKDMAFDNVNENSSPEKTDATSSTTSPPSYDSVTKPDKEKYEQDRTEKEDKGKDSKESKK
T3 sequence (Q07699 19-218, further chain): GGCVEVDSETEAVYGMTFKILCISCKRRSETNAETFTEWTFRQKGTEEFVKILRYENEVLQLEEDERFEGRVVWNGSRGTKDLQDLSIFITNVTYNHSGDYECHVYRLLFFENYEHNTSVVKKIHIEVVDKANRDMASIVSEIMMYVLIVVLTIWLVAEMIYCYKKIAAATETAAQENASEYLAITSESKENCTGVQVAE

SMILES: Nc1ccncc1 [4-AP, 4-aminopyridine]
- effect on action potential duration (APD), 4-AP [1]: significantly prolonged

SMILES: CC(C)C[C@H](NC(=O)[C@H](CC(=O)O)NC(=O)[C@H](Cc1ccc(O)cc1)NC(=O)[C@H](CCCCN)NC(=O)[C@@H]1CSSC[C@@H]2NC(=O)[C@H](CCC(N)=O)NC(=O)[C@H](CC(=O)O)NC(=O)[C@H](CC(N)=O)NC(=O)[C@H](CO)NC(=O)[C@@H]3CCCN3C(=O)[C@H](CC(N)=O)NC(=O)[C@@H]3CSSC[C@H](NC(=O)[C@H](C(C)C)NC(=O)[C@H](CC(C)C)NC(=O)[C@H](CO)NC(=O)[C@H](CO)NC(=O)[C@H](CO)NC(=O)[C@H](CCCCN)NC(=O)[C@H](CSSC[C@H](NC(=O)[C@H](C)N)C(=O)N[C@@H](CC(C)C)C(=O)NCC(=O)N[C@@H](Cc4ccccc4)C(=O)NCC(=O)N[C@@H](CCC(=O)O)C(=O)N[C@@H](CCCCN)C(=O)N3)NC2=O)C(=O)N[C@@H](CO)C(=O)N[C@@H](CCC(N)=O)C(=O)N[C@@H](CCCCN)C(=O)N[C@@H](Cc2c[nH]cn2)C(=O)N[C@@H](CCCCN)C(=O)N[C@@H](Cc2c[nH]c3ccccc23)C(=O)N1)C(N)=O [Ca2a]
- Hill coefficients on rKv4.2 ([2]; Hill fit of concentration-response curves, mean ± S.E.M., n = 4-8): 1.05 ± 0.17
- rKv4.2 voltage dependence of activation, V1/2 with toxin [2]: 42.0±2.1 mV
- rKv4.2 voltage dependence of inactivation, V1/2 with toxin [2]: -54.3±1.4 mV
- rKv4.3 voltage dependence of activation, V1/2 with toxin ([3]; SEM): 59.0±3.0 mV
- rKv4.3 voltage dependence of inactivation, V1/2 with toxin ([3]; SEM): -48.1±2.0 mV
- rKv4.3 voltage dependence of activation, κ with toxin [3, 6]: 12.2±0.9 mV
- rKv4.3 voltage dependence of inactivation, κ with toxin [3, 6]: 4.5±0.2 mV
- influence on the steady-state inactivation of rKv4.3 ([3]; sub-saturation concentration): almost no influence

SMILES: CC[C@H](C)[C@H](NC(=O)[C@H](CCCCN)NC(=O)[C@H](Cc1ccc(O)cc1)NC(=O)[C@H](CCCCN)NC(=O)[C@@H]1CSSC[C@@H]2NC(=O)[C@H](CCC(=O)O)NC(=O)[C@H](CC(=O)O)NC(=O)[C@H](CCCCN)NC(=O)CNC(=O)[C@@H]3CCCN3C(=O)[C@H]([C@@H](C)O)NC(=O)[C@@H]3CSSC[C@H](NC(=O)[C@H](C(C)C)NC(=O)[C@H](Cc4c[nH]cn4)NC(=O)[C@H](CC(N)=O)NC(=O)[C@@H]4CCCN4C(=O)[C@H](CSSC[C@H](NC(=O)[C@H](C)N)C(=O)N[C@@H](CCCCN)C(=O)NCC(=O)N[C@@H]([C@@H](C)CC)C(=O)N[C@@H](Cc4ccccc4)C(=O)N[C@@H](C(C)C)C(=O)N[C@@H]([C@@H](C)O)C(=O)N3)NC2=O)C(=O)N[C@@H](CO)C(=O)N[C@@H](CO)C(=O)N[C@@H](CCCCN)C(=O)N[C@@H](Cc2c[nH]cn2)C(=O)N[C@@H](CCCCN)C(=O)N[C@@H](Cc2c[nH]c3ccccc23)C(=O)N1)C(N)=O [Cl6b] (H-ACKGIFVTCTPGKDECCPNHVCSSKHKWCKYKI-NH2; disulfide 2-17, 9-22, 16-29)
- effect on the current traces of other Kv channels [4]: no obvious or only minimal effect

SMILES: CC(C)C[C@H](NC(=O)[C@H](Cc1ccc(O)cc1)NC(=O)[C@@H](NC(=O)[C@H](CCCCN)NC(=O)[C@@H]1CSSC[C@@H]2NC(=O)[C@H](CCC(=O)O)NC(=O)[C@H](CC(N)=O)NC(=O)[C@H](CCCCN)NC(=O)CNC(=O)[C@@H]3CCCN3C(=O)[C@H]([C@@H](C)O)NC(=O)[C@@H]3CSSC[C@H](NC(=O)[C@H](C)NC(=O)[C@H](C)NC(=O)[C@H](CC(N)=O)NC(=O)[C@@H]4CCCN4C(=O)[C@H](CSSC[C@H](NC(=O)CN)C(=O)N[C@@H](CCCCN)C(=O)NCC(=O)N[C@@H](Cc4ccccc4)C(=O)NCC(=O)N[C@@H](CC(=O)O)C(=O)N[C@@H](CO)C(=O)N3)NC2=O)C(=O)N[C@@H](CO)C(=O)N[C@@H](CO)C(=O)N[C@@H](CCCCN)C(=O)N[C@@H](Cc2c[nH]cn2)C(=O)N[C@@H](CCCCN)C(=O)N[C@@H](Cc2c[nH]c3ccccc23)C(=O)N1)C(C)C)C(N)=O [Y20A] (H-GCKGFGDSCTPGKNECCPNAACSSKHKWCKVYL-NH2; disulfide 2-17, 9-22, 16-29)
- IC50 [5, 7]: 7160 ± 528 nM
- IC50 [2, 8]: 4000 ± 2000 nM

SMILES: CC(C)C[C@H](NC(=O)[C@H](Cc1ccc(O)cc1)NC(=O)[C@@H](NC(=O)[C@H](CCCCN)NC(=O)[C@@H]1CSSC[C@@H]2NC(=O)[C@H](CCC(=O)O)NC(=O)[C@H](CC(N)=O)NC(=O)[C@H](CCCCN)NC(=O)CNC(=O)[C@@H]3CCCN3C(=O)[C@H]([C@@H](C)O)NC(=O)[C@@H]3CSSC[C@H](NC(=O)[C@H](C)NC(=O)[C@H](Cc4c[nH]c5ccccc45)NC(=O)[C@H](CC(N)=O)NC(=O)[C@@H]4CCCN4C(=O)[C@H](CSSC[C@H](NC(=O)CN)C(=O)N[C@@H](CCCCN)C(=O)NCC(=O)N[C@@H](Cc4ccccc4)C(=O)NCC(=O)N[C@@H](CC(=O)O)C(=O)N[C@@H](CO)C(=O)N3)NC2=O)C(=O)N[C@@H](CO)C(=O)N[C@@H](CO)C(=O)N[C@@H](CCCCN)C(=O)N[C@@H](Cc2c[nH]cn2)C(=O)N[C@@H](CCCCN)C(=O)N[C@@H](Cc2c[nH]c3ccccc23)C(=O)N1)C(C)C)C(N)=O [Y20W] (H-GCKGFGDSCTPGKNECCPNWACSSKHKWCKVYL-NH2; disulfide 2-17, 9-22, 16-29)
- IC50 [5, 7]: 495 ± 39 nM
- IC50 [2, 8]: 228 ± 33 nM

SMILES: CC(C)C[C@H](NC(=O)[C@H](C)NC(=O)[C@@H](NC(=O)[C@H](CCCCN)NC(=O)[C@@H]1CSSC[C@@H]2NC(=O)[C@H](CCC(=O)O)NC(=O)[C@H](CC(N)=O)NC(=O)[C@H](CCCCN)NC(=O)CNC(=O)[C@@H]3CCCN3C(=O)[C@H]([C@@H](C)O)NC(=O)[C@@H]3CSSC[C@H](NC(=O)[C@H](C)NC(=O)[C@H](Cc4ccc(O)cc4)NC(=O)[C@H](CC(N)=O)NC(=O)[C@@H]4CCCN4C(=O)[C@H](CSSC[C@H](NC(=O)CN)C(=O)N[C@@H](CCCCN)C(=O)NCC(=O)N[C@@H](Cc4ccccc4)C(=O)NCC(=O)N[C@@H](CC(=O)O)C(=O)N[C@@H](CO)C(=O)N3)NC2=O)C(=O)N[C@@H](CO)C(=O)N[C@@H](CO)C(=O)N[C@@H](CCCCN)C(=O)N[C@@H](Cc2c[nH]cn2)C(=O)N[C@@H](CCCCN)C(=O)N[C@@H](Cc2c[nH]c3ccccc23)C(=O)N1)C(C)C)C(N)=O [Y32A] (H-GCKGFGDSCTPGKNECCPNYACSSKHKWCKVAL-NH2; disulfide 2-17, 9-22, 16-29)
- IC50 [5, 7]: 936 ± 123 nM
- IC50 [2, 8]: 1000 ± 177 nM

SMILES: CC[C@H](C)[C@@H]1NC(=O)[C@@H]2CSSC[C@@H]3NC(=O)[C@H](C(C)C)NC(=O)[C@H](CC(C)C)NC(=O)[C@H](CC(N)=O)NC(=O)[C@@H]4CCCN4C(=O)[C@H](CCCNC(=N)N)NC(=O)[C@H](CSSC[C@H](NC(=O)[C@@H](N)CC(=O)O)C(=O)N[C@@H](CC(C)C)C(=O)NCC(=O)N[C@@H](C)C(=O)N[C@@H](Cc4ccccc4)C(=O)N[C@@H](CCCNC(=N)N)C(=O)N[C@@H](CCCCN)C(=O)N2)NC(=O)[C@H](CSSC[C@@H](C(=O)N[C@@H](CCCCN)C(=O)N[C@@H](Cc2ccc(O)cc2)C(=O)N[C@H](C(=O)N[C@@H](Cc2ccccc2)C(N)=O)C(C)C)NC(=O)[C@H](Cc2c[nH]c4ccccc24)NC(=O)[C@H](CCCNC(=N)N)NC(=O)[C@H](Cc2c[nH]cn2)NC(=O)[C@H](CC(C)C)NC(=O)[C@H](C)NC(=O)[C@H](CO)NC3=O)NC(=O)[C@H](CCCCN)NC(=O)[C@H](CC(=O)O)NC(=O)[C@H](CC(N)=O)NC(=O)[C@H](CC(=O)O)NC(=O)[C@@H]2CCCN2C1=O [mGpTx1-R25A] (H-DCLGAFRKCIPDNDKCCRPNLVCSALHRWCKYVF-NH2; disulfide 2-17, 9-23, 16-30)
- IC50 ([5]; hNav1.7 with β1 and β2, held at -90 mV, step to 0 mV, mean ± S.E.M., n = 3-7, read-out: IC50 for hNav1.7): 1.3 ± 0.1 nM
- IC50 ([2]; held at -80 mV, step to 0 mV, mean ± S.E.M., read-out: IC50 for rKv4.2): 57.2 ± 6.2 nM
